What was measured:
striatal 6-OHDA infusion = details: peripheral adenosine, Wistar rats; cited from earlier work
nigral THir neurons = test: Unbiased stereological counts of THir cells in the substantia nigra after striatal 6-OHDA; type: in vivo, Sprague Dawley rats; details: experiment 2, KO alone vs control pellet, 4 weeks post-6-OHDA
Experimental: Rats were anesthetized prior to surgery with Equi-Thesin (0.3 ml/100 g body weight i.p.; chloral hydrate 42.5 mg/ml+sodium pentobarbital 9.72 mg/ml), their heads shaved, and then they were placed in a stereotaxic frame. Their skin was swabbed with Betadyne followed by 70% ETOH. The scalp was then opened to expose the skull. Two 1 mm holes were drilled into the skull and rats were injected in two sites in the striatum with 6-OHDA (MP Biomedicals, Solon, Ohio; 5 μg/μl 6-OHDA in 0.2% ascorbic acid, 0.9% saline solution). The coordinates for these injections were AP −1.6 mm, ML +2.4 mm, DV −4.2 mm and AP −0.2 mm, +ML 2.6 mm, DV −7.0 mm. The needle was zeroed at the skull directly above the injection site in order to target the DV coordinate. For each injection, the needle was lowered slowly to the injection site and 1 minute elapsed before injection commenced, 6-OHDA was injected at 0.5 μl/minute and at the end of the injection the needle was held in place for an additional 2 minutes prior to retraction. The wound area was cleaned with Betadine solution and the scalp was closed with surgical wound clips. This lesion paradigm results in a progressive loss of TH phenotype and frank DA cell death.
Animals were deeply anesthetized (60 mg/kg, pentobarbital, i.p.) and perfused intracardially with warm 0.9% saline containing 1 ml/L 10,000 USP heparin followed by ice-cold 0.9% saline. For immunoshistochemistry brains were removed, post fixed for 24 hours in 4% paraformaldehyde and transferred to 30% sucrose in 0.1M PO4 buffer. For determination of purine levels brains were immediately removed and flash frozen in 3-methyl butane. Brains were stored at −80° C. until analysis.
Brains were frozen on dry ice and sectioned at a 40 μm thickness using a sliding microtome. Every sixth section through the SN was processed for labeling with antisera against TH. Following blocking in 10% normal goat serum, tissue was incubated in primary antisera directed against TH (Chemicon MAB318, mouse anti TH 1:4,000) overnight at room temperature. Following primary incubation, sections were incubated in biotinylated secondary antisera against mouse IgG (Chemicon AP124B, 1:400) followed by the Vector ABC detection kit employing horseradish peroxidase (Vector Laboratories, Burlingame, Calif.). Antibody labeling was visualized by exposure to 0.5 mg/ml 3,3′ diaminobenzidine (DAB) and 0.03% H2O2 in Tris buffer. Sections were mounted on subbed slides, dehydrated to xylene and coverslipped with Cytoseal (Richard-Allan Scientific, Waltham, Mass.).
Unbiased stereological counts of THir cells were performed using a BX52 Olympus microscope (Olympus America Inc.) interfaced with Microbrightfield stereological software and a Microfire CCD camera (Optronics, Goleta, Calif.). Utilizing 2 μm guard zones and a 50 μm×50 μm counting frame a grid size of 112 μm×183 μm was employed to assure that all coefficient of error values were ≦0.10. Using the optical fractionator principle, the regions of interest were individually outlined under a low magnification (1.25×). Using a 60× magnification lens with a 1.4 N/A the section thickness was empirically determined by first bringing the top of the section into focus and then using Microbrightfield software to step through the z-axis in 1 μm increments until the very bottom of the section was in focus. […]

| Structure (SMILES) | neuroprotection against striatal 6-OHDA infusion (striatal 6-OHDA infusion) | number of THir neurons in either the intact or lesioned SN (nigral THir neurons) |
| --- | --- | --- |
| Nc1ncnc2c1ncn2[C@@H]1O[C@H](CO)[C@@H](O)[C@H]1O [adenosine] | functional neuroprotection |  |
| O=C([O-])c1nc(=O)[nH]c(=O)[nH]1.[K+] [KO, potassium oxonate] |  | no significant impact |

From patent US20120128654A1, “Allantoin Administration for the Treatment of Neurodegenerative Disease and Neurotrauma” (UNIVERSITY OF CINCINNATI, priority 2009, published 2012)
